pIC50: −log10 of the molar value.

Experiment [1] in a line: Inhibition of pseudotype HIV1 integrase strand transfer activity assessed as reduction in viral replication in HIV1 infected human CIP4 cells after 2 days by luciferase reporter gene assay. For orientation: A reporter such as luciferase makes a cellular process visible.
Experiment [2] can be described thus: Inhibition of pseudotype HIV1 integrase strand transfer activity assessed as reduction in viral replication in HIV1 infected human CIP4 cells after 2 days in presence of 40% human serum albumin by luciferase reporter gene assay.

The term pIC50 denotes −log10 of the IC50, conventionally taken in molar units. On to `O=C(NCc1ccc(F)cc1)c1cn2c(c(O)c1=O)C(=O)N1CCCO[C@H]1C2`, for which the pIC50 in experiment [1] is 8.70.

For `O=C1c2c(cc3cc(Cc4cccc(Cl)c4F)cnc3c2O)CN2CCCN12`, the negative-log IC50 (pIC50) in experiment [2] was 6.87; in experiment [1], 7.80.

For `N#Cc1c2c(c(O)c3ncc(Cc4cccc(Cl)c4F)cc13)C(=O)N1CCCN1C2`, the pIC50 in experiment [2] was 6.38; in experiment [1], 8.66.

Regarding `N#Cc1c2c(c(O)c3ncc(Cc4cccc(Cl)c4F)cc13)C(=O)N1CCC[C@@H]1C2`, the pIC50 in experiment [2] was 5.34; in experiment [1] it was 8.15.

As for `N#Cc1c2c(c(O)c3ncc(Cc4cccc(Cl)c4F)cc13)C(=O)N1CCC[C@H]1C2`, the values for the negative-log IC50 (pIC50) in experiment [2] and in experiment [1] were 7.18 and 7.85, respectively.

On to `N#Cc1c2c(c(O)c3ncc(Cc4cccc(Cl)c4F)cc13)C(=O)N1CCCC[C@H]21`, for which the pIC50 in experiment [2] was 6.34; in experiment [1] it was 7.82.

In the case of `N#Cc1c2c(c(O)c3ncc(Cc4cccc(Cl)c4F)cc13)C(=O)N1CCCC[C@@H]21`, the pIC50 was 5.89 in experiment [2] and 7.74 in experiment [1].

For the compound `N#Cc1c2c(c(O)c3ncc(Cc4cccc(Cl)c4F)cc13)C(=O)N1CCC[C@H]21`, the results for the pIC50 in experiment [2] and in experiment [1] were 6.53 and 8.30, respectively.

For the compound `N#Cc1c2c(c(O)c3ncc(Cc4cccc(Cl)c4F)cc13)C(=O)N1CCC[C@@H]21`, the figures for the pIC50 in experiment [2] and in experiment [1] were 5.48 and 8.00, respectively.

Consider `NC(=O)c1c2c(c(O)c3ncc(Cc4cccc(Cl)c4F)cc13)C(=O)N1CCC[C@@H]1C2`, for which the pIC50 in experiment [2] is 7.52; in experiment [1] it was 8.10.

As for `NC(=O)c1c2c(c(O)c3ncc(Cc4cccc(Cl)c4F)cc13)C(=O)N1CCC[C@H]1C2`, the pIC50 is 7.82 in experiment [2] and 8.52 in experiment [1].

`NC(=O)c1c2c(c(O)c3ncc(Cc4cccc(Cl)c4F)cc13)C(=O)N1CCCC[C@H]21`: the pIC50 in experiment [2] is 9.00; in experiment [1], 9.15.

Take `NC(=O)c1c2c(c(O)c3ncc(Cc4cccc(Cl)c4F)cc13)C(=O)N1CCCC[C@@H]21`: the figures for the negative-log IC50 (pIC50) in experiment [2] and in experiment [1] were 8.70 and 9.22, respectively.

`Cn1c(=O)c(C(=O)NCCO)c(O)c2ncc(Cc3ccc(F)cc3)cc21` [GSK364735]: the pIC50 in experiment [1] was 8.52.

The values are drawn from BindingDB's records for doi:10.1016/j.ejmech.2016.03.038 (Glaxosmithkline, 2016).
